Experimental data taken from article PMC7819857, “Identification of Inhibitors of Integrin Cytoplasmic Domain Interactions With Syk” (Frontiers in Immunology, 2021).
Where two headings read alike, the source gives them in different places.

How the values were obtained:
[1] = target: T1, integrin β3 cytoplasmic domain : tandem SH2 domains of Syk (GST-Syk(6-370)) (Homo sapiens, UniProt P43405); assay: AlphaScreen of integrin β3 cytoplasmic domain peptide binding to GST-Syk(6-370); details: for fold difference in inhibition, primary screen over false-positive counter screen (hit criterion): re-sourced compounds, counter screen with biotinylated GST; for inhibition of fluorescent signal in the primary screen, re-sourced compounds (hit criterion): re-sourced from a separate commercial source, 25 uM in text, 30 uM in legend of Figure 2C
T1 construct: the tandem SH2 domains of Syk (residues 6-370); made in house; host or cells: E. coli BL21(DE3)
Protocol: The following HTS assay was developed to identify antagonists of the interaction between the integrin β3 cytoplasmic domain and the non-receptor tyrosine kinase Syk. […] ( Figure 1E ). Background signals in this assay were determined by omitting the integrin β3 peptide. Specific assay conditions are described in Table 1 . […] Then, either dimethyl sulfoxide control or compound was added, followed by biotinylated β3 peptide, and avidin-coated AlphaScreen donor beads. After a 4-h incubation period at room temperature (while protected from light), assays plates were read on an Infinite M1000 (Tecan) multiplate reader (Ex. 680/30; Em. 570/100).
Figure 3 Dose-response curves in primary and orthogonal screens. (A) AlphaScreen dose-response curves. […] Data are expressed as mean fluorescence (Fl520) ± range from duplicates, and one representative experiment of “n” performed is shown. (B) Orthogonal ELISA-based dose-response assays. […] Data are expressed as mean abs450 ± SEM from triplicate determinations, and one of three representative experiments is shown. (C) Ceftazidime inhibition of β3 peptide binding to Syk from THP-1 whole cell lysate. THP-1 cell lysate (100 ug) was treated with or without ceftazidime (Ctaz) before incubation with β3-coated avidin-agarose beads, and bound Syk was measured by western blot (example shown in inset). Blank beads served as a negative control. Equal β3 peptide loading was verified by probing blots with avidin-HRP (not shown).

[2] = target: T2, integrin β3 cytoplasmic domain (bβ3(fl)) : GST-Syk(6-370) (Homo sapiens, UniProt P43405); assay: ELISA-based orthogonal assay, bβ3(fl) and GST-Syk(6-370); format: binding
T2 construct: the tandem SH2 domains of Syk (residues 6-370); made in house; host or cells: E. coli BL21(DE3)
Protocol: For ELISA-based assays, 96-well plates (Costar cat# 9018) were coated overnight at 4°C with neutravidin (Thermo Scientific, cat#31050) in 10 mM Tris pH 9 and 100 mM NaCl. After overnight incubation, non-specific binding sites were blocked with bovine serum albumin (BSA) (2% w/v) for at least 1 h at room temperature. Plates were washed in 25 mM HEPES pH 7.5, 100 mM NaCl, 0.1% BSA, and 0.01% TritonX-100 (assay buffer), and indicated biotinylated β3 peptide was incubated for at least 2 h at room temperature (0.5–3 ug/ml in di-H2O). After washing in the assay buffer, GST-fusion proteins were added (50 ul, indicated concentrations) and incubated at room temperature for 1 h in assay buffer. For compound inhibition studies, compounds were added to GST-fusion proteins (at indicated concentrations) before they were added to plates. Plates were washed 3× with assay buffer (200 ul) to remove unbound GST-fusion protein. Horseradish peroxidase (HRP)-conjugated anti-GST antibody [Polyclonal anti-GST(Z-5)-HRP, Santa Cruz Biotechnology, cat #sc-459 0.2 ug/ml] was incubated in washed plates in 50 ul assay buffer for 45 min at room temperature. After washing, the signal was generated with 1-step Ultra TMB-ELISA (Thermo Scientific, cat#34028), stopped with 2 N H2SO4, and read on a plate reader (SPARK 10M/Tecan) at 450 nm.
Figure 3 Dose-response curves in primary and orthogonal screens. (A) AlphaScreen dose-response curves. […] Data are expressed as mean fluorescence (Fl520) ± range from duplicates, and one representative experiment of “n” performed is shown. (B) Orthogonal ELISA-based dose-response assays. […] Data are expressed as mean abs450 ± SEM from triplicate determinations, and one of three representative experiments is shown. (C) Ceftazidime inhibition of β3 peptide binding to Syk from THP-1 whole cell lysate. THP-1 cell lysate (100 ug) was treated with or without ceftazidime (Ctaz) before incubation with β3-coated avidin-agarose beads, and bound Syk was measured by western blot (example shown in inset). Blank beads served as a negative control. […]

[3] = Solubility under assay conditions; format: physicochemical
GST-free Syk(6-370) = target: T3, GST-free Syk(6-370) (Homo sapiens, UniProt P43405); assay: Thermal denaturation assay (SYPRO orange); format: binding; details: Syk(6-370) 2 µM, dose-dependent
T3 construct: Syk 6-370 (GST tag removed by thrombin cleavage) was used; GST (N, cleaved yes); made in house; host or cells: E. coli BL21(DE3)
Protocol: In this assay, Syk 6-370 (GST tag removed by thrombin cleavage) was used. Thrombin (GE Healthcare cat#270846, reconstituted in PBS to 1 unit/ul) was applied to the GST-Syk 6-370 protein bound to the Glutathione Sepharose beads. The GST-tag was cleaved with 20 unit/1 ml of protein-GST beads in PBS overnight at room temperature. After chromatography and additional cleaning on GST-beads, the purified protein was verified by SDS-PAGE. For thermal denaturation experiments, GST-free Syk(6-370) was used at a final concentration of 2 µM and SYPRO orange (Thermo Scientific, cat# S6650) at a 0.08% (v/v) dilution (from a 5000x stock). Compounds were used at indicated concentrations. Numerous reaction buffers were initially screened, and a final buffer containing 25 mM HEPES (pH 7.5) with 100 mM NaCl was used. Assays were performed in 20 µl volumes, in triplicate, in 384-well plates (Applied Biosystems MicroAmp 384-well clear optical reaction plate, catalogue #4483285). Plates were sealed with Applied Biosystems Optical Adhesive Cover (cat#4360954) and centrifuged for 2 min at 800 × g at room temperature. Thermal denaturation was measured on a Quant Studio 6 Flex Real-time PCR system (Applied Biosystems). […]

[4] = Figure 3A: biotinylated-b3(sh) peptide 30 nM, GST-Syk(6-370) 0.3 nM, read-out: IC50, AlphaScreen dose-response

| Molecule | IC50 [1, 4] | fold difference in inhibition, primary screen over false-positive counter screen (hit criterion) [1] | inhibition of fluorescent signal in the primary screen, re-sourced compounds (hit criterion) [1] | inhibitory activity in ELISA-based orthogonal assay [2] | solubility under ELISA assay conditions ([3]; ELISA assay buffer, highest doses tested) | IC50 ([1]; abstract summary for both compounds, read-out: IC50 range, inhibition of integrin β-subunit cytoplasmic domain binding to the tandem SH2 domains of Syk) | IC50 ([1]; as restated in the Discussion, read-out: IC50 in AlphaScreen assays) | IC50 ([1]; biotinylated-b3(sh) peptide 30 nM, GST-Syk(6-370) 0.3 nM, read-out: value printed in Figure 3A, AlphaScreen dose-response (no measure name)) | effect on melting temperature (Tm) of Syk(6-370) (GST-free Syk(6-370)) | solubility for retest in primary and false-positive screens ([3]; re-sourced hit retest, 30 uM) |
| --- | --- | --- | --- | --- | --- | --- | --- | --- | --- | --- |
| neomycin sulfate | 0.038 ± 0.019 µM | greater than 3 fold | greater than 50% | did not demonstrate inhibitory activity | – | – | – | – | – | – |
| C=C1c2cccc(O)c2C(=O)C2=C(O)[C@]3(O)C(=O)C(C(N)=O)=C(O)[C@@H](N(C)C)[C@@H]3[C@@H](O)[C@H]12 [methacycline] | 22.4 ± 4.1 µM | greater than 3 fold | greater than 50% | – | not soluble at the highest doses tested | – | – | – | – | – |
| NC(=O)c1cc[n+](CC2=C(C(=O)O)N3C(=O)[C@@H](NC(=O)[C@@H](c4ccccc4)S(=O)(=O)[O-])[C@H]3SC2)cc1 [cefsulodin] | 4.9 ± 4.2 µM | greater than 3 fold | greater than 50% | remained active | – | 1.02 to 4.9 µM | 4.2 µM | 4.89 ± 4.2 µM | decreased | – |
| CC[C@@]1(O)C(=O)OCc2c1cc1n(c2=O)Cc2cc3c(CN(C)C)c(O)ccc3nc2-1 [topotecan] | – | – | – | – | – | – | – | – | – | lack of solubility |
